According to patent US7709523B2, “Alpha-aminoamide derivatives useful as antimigraine agents” (Newron Pharmaceuticals SpA, priority 2003, dated 2010):

Test system: CBF response evoked by electrical stimulation of the left ophthalmic branch of the trigeminal ganglion
Assay: Inhibition of cerebral blood flow (CBF) increase evoked by electrical stimulation of the trigeminal ganglion in anesthetized rats
Format: in vivo, Male Wistar rats
Settings: rat, i.v.; for % Inhibition of the CBF response: mean±S.E. of 4/6 rats, versus vehicle
Experimental: Male Wistar rats (250-350 g) were anesthetized with sodium pentobarbital (50 mg/kg i.p.) dissolved in saline. The trachea and left femoral artery were cannulated for artificial ventilation (55 strokes/min) and for measurement of mean blood pressure (MBP) respectively. The femoral vein was cannulated for the intravenous administration of test agents. Body temperature was maintained at 37-38° C. by automatic control of a heating pad. Animals were placed in a stereotaxic frame and a longitudinal incision was made in the scalp. A burr hole was drilled in the skull and a stainless steel bipolar electrode (Plastic One MS 306) was lowered into left ophthalmic branch of the trigeminal ganglion (3.8 mm […] to bregma, 2.5 mm lateral from the midline and 9.5 mm below the dural surface) and secured with dental cement. Correct placement of the electrode was confirmed by a brief electrical stimulation, which cause movement of the jaw due to activation of the trigeminal fiber. Following removal of the brain, the correct position of the electrode into the fiber, was visually checked at the end of each experiment. A second hole was drilled ipsilateral of the electrode (1.5 mm rostral to bregma, and 1.5 mm lateral from the sagittal suture) and a needle probe (tip diameter 0.8 mm) of a laser doppler flowmeter was fixed pointing with its tip onto a branch of the middle cerebral artery (MCA) and Cerebral Blood Flow (CBF) change recorded on-line by the PeriFlux 4001 Laser Doppler system. Artefacts of the laser Doppler reading during electrical stimulation of the trigeminal ganglion due to muscular movements were prevented by a bolus of i.v. injection of the neuromuscular blocker pancuronium bromide (0.6 mg/kg i.v.). Anesthesia and neuromuscular blockade were maintained all over the experiment with an infusion of sodium pentobarbital and pancuronium (12.5 mg/kg/h+2.4 mg/kg/h, respectively). At the end of the surgery, a pause of thirty minutes was taken in order to stabilize the measured parameters. Rest CBF was increased by electrical stimulation with rectangular pulse of 0.5 msec length, 1-10 Hz, 0.5-1 mA for periods of 30 seconds. After two averaged pre-drug stimulations, vehicle or drugs were administered. The α-aminoamide compounds NW-1015, NW-1029, NW-1039, representative of the invention, and the comparative 2-(4-(2-fluorobenzyloxy)benzylamino)-2-methyl-propanamide (internal code and hereinafter NW1050), 2-(4-(4-fluorobenzyloxy)benzylamino)-2-methyl-propanamide (internal code and hereinafter NW1055, also one of the compounds tested in WO99/26614), 4-(4′-fluorophenoxy)benzaldheyde semicarbazone (hereinafter Co102862, tested in WO00/61188) and vehicle, were administered intravenously after second basal stimulation registering the responses to evoked flow by electrical stimulation at 5, 15, 30 and 60 min after treatment. NW-1015, was administered at the doses of 1, 2 and 5 mg/kg; NW-1029 was administered at the doses of 5 and 10 mg/kg and NW-1039 at the doses of 2 and 5 mg/kg whereas NW-1050, NW-1055 and Co102862 were all administered at the dose of 20 mg/kg. The responses obtained after drug administration were compared to the vehicle group, and were reported as a percentage of the inhibition of the evoked CBF. Data were compared by analysis of covariance (ANCOVA) followed by Dunnet's test. The antimigraine effect of the tested compounds was observed and measured as the percentage of the inhibition after i.v. administration of the above mentioned representative compounds of the CBF evoked in control condition. The data reported in table 1 below show the inhibitory activity of the tested compounds on the CBF response evoked by electrical stimulation of the left ophthalmic branch of the trigeminal ganglion. Results (mean±S.E. of 4/6 rats per group) are expressed as percent of the inhibition on evoked CBF response versus the vehicle.

[1] = dose 20 mg/kg, 5 min after administration
[2] = dose 20 mg/kg, 15 min after administration
[3] = dose 20 mg/kg, 30 min after administration
[4] = dose 20 mg/kg, 60 min after administration
[5] = at the doses tested (1-10 mg/kg), up to 60 min
[6] = dose 2 mg/kg, 5 min after administration
[7] = dose 2 mg/kg, 15 min after administration
[8] = dose 2 mg/kg, 30 min after administration
[9] = dose 2 mg/kg, 60 min after administration
[10] = dose 5 mg/kg, 5 min after administration
[11] = dose 5 mg/kg, 15 min after administration
[12] = dose 5 mg/kg, 30 min after administration
[13] = dose 5 mg/kg, 60 min after administration

## NC(=O)NN=Cc1ccc(Oc2ccc(F)cc2)cc1 [Co102862, 4-(4′-fluorophenoxy)benzaldheyde semicarbazone, reference compound]
20 mg/kg
  Effect on the evoked CBF compared to the vehicle group (in words): completely inactive
[1]
  % Inhibition of the CBF response: 0.9 ± 0.1%
[2]
  % Inhibition of the CBF response: 1.1 ± 0.3%
[3]
  % Inhibition of the CBF response: 1.2 ± 0.2%
[4]
  % Inhibition of the CBF response: 0.7 ± 0.1%

## C[C@H](NCc1ccc(OCc2cccc(F)c2)cc1)C(N)=O [NW-1015, (S)-(+)-2-[4-(3-fluorobenzyloxy)benzylamino]-propanamide]
[5]
  Effect on the evoked CBF compared to the vehicle group (in words): long lasting i.v. activity reducing the evoked CBF up to 60 min after administration
Dose 1 mg/kg, 5 min after administration
  % Inhibition of the CBF response: 25.6 ± 2.9%
Dose 1 mg/kg, 15 min after administration
  % Inhibition of the CBF response: 25.8 ± 2.7%
Dose 1 mg/kg, 30 min after administration
  % Inhibition of the CBF response: 36.6 ± 4.7 %
Dose 1 mg/kg, 60 min after administration
  % Inhibition of the CBF response: 15.7 ± 9.8%
[6]
  % Inhibition of the CBF response: 15.0 ± 1.8 %
[7]
  % Inhibition of the CBF response: 22.0 ± 3.8 %
[8]
  % Inhibition of the CBF response: 20.6 ± 6.2 %
[9]
  % Inhibition of the CBF response: 4.0 ± 6.3%
[10]
  % Inhibition of the CBF response: 25.2 ± 2.6%
[11]
  % Inhibition of the CBF response: 35.5 ± 6.5 %
[12]
  % Inhibition of the CBF response: 34.7 ± 1.9 %
[13]
  % Inhibition of the CBF response: 27.1 ± 3.6%

## C[C@H](NCc1ccc(OCc2ccccc2F)cc1)C(N)=O [NW-1029, (S)-(+)-2-[4-(2-fluorobenzyloxy)benzylamino]-propanamide]
[5]
  Effect on the evoked CBF compared to the vehicle group (in words): reduced the evoked CBF compared to the vehicle up to 60 min post administration
[10]
  % Inhibition of the CBF response: 15.5 ± 3.7%
[11]
  % Inhibition of the CBF response: 20.8 ± 3.5%
[12]
  % Inhibition of the CBF response: 27.8 ± 3.9 %
[13]
  % Inhibition of the CBF response: 30.6 ± 2.8%
Dose 10 mg/kg, 5 min after administration
  % Inhibition of the CBF response: 23.9 ± 3.9%
Dose 10 mg/kg, 15 min after administration
  % Inhibition of the CBF response: 34.9 ± 8.2 %
Dose 10 mg/kg, 30 min after administration
  % Inhibition of the CBF response: 35.3 ± 2.6 %
Dose 10 mg/kg, 60 min after administration
  % Inhibition of the CBF response: 35.7 ± 3.9 %

## C[C@H](NCc1ccc(OCc2cccc(Cl)c2)cc1)C(N)=O [NW-1039, (S)-(+)-2-[4-(3-chlorobenzyloxy)benzylamino]-propanamide]
[5]
  Effect on the evoked CBF compared to the vehicle group (in words): produced a decrease of the evoked CBF response compared to the vehicle group
[6]
  % Inhibition of the CBF response: 24.2 ± 6.2%
[7]
  % Inhibition of the CBF response: 31.3 ± 6.2 %
[8]
  % Inhibition of the CBF response: 32.1 ± 8.1 %
[9]
  % Inhibition of the CBF response: 36.2 ± 9.1 %
[10]
  % Inhibition of the CBF response: 45.0 ± 6.3 %
[11]
  % Inhibition of the CBF response: 41.7 ± 1.8 %
[12]
  % Inhibition of the CBF response: 38.1 ± 2.6 %
[13]
  % Inhibition of the CBF response: 20.9 ± 9.4%

## CC(C)(NCc1ccc(OCc2ccccc2F)cc1)C(N)=O [NW-1050, 2-(4-(2-fluorobenzyloxy)benzylamino)-2-methyl-propanamide, reference compound]
20 mg/kg
  Effect on the evoked CBF compared to the vehicle group (in words): completely inactive
[1]
  % Inhibition of the CBF response: 1.2 ± 0.3%
[2]
  % Inhibition of the CBF response: 1.8 ± 0.6%
[3]
  % Inhibition of the CBF response: 1.7 ± 0.8%
[4]
  % Inhibition of the CBF response: 0.9 ± 0.1%

## CC(C)(NCc1ccc(OCc2ccc(F)cc2)cc1)C(N)=O [NW-1055, 2-(4-(4-fluorobenzyloxy)benzylamino)-2-methyl-propanamide, reference compound]
20 mg/kg
  Effect on the evoked CBF compared to the vehicle group (in words): light inhibition of the evoked CBF, which however did not reach a statistically significant difference
[1]
  % Inhibition of the CBF response: 6.9 ± 4.2%
[2]
  % Inhibition of the CBF response: 3.4 ± 3.2%
[3]
  % Inhibition of the CBF response: 11.3 ± 2.0%
[4]
  % Inhibition of the CBF response: 14.0 ± 4.0%
